This note sets out measurements from the NIST ThermoML archive (doi:10.1016/j.tca.2007.02.005).

± gives the expanded uncertainty stated by the source.

Data set [1] in a line: Molar enthalpy of transition or fusion. The note with it: Crystal; DSC.
The conditions of data set [2]: Crystal; DTA.

For `c1ccc(-c2nc(-c3ccccc3)c(-c3ccccc3)[nH]2)cc1` [2,4,5-triphenyl-1H-imidazole], the “Molar enthalpy of transition or fusion” value in data set [1] is 8.92 ± 0.194 kcal/mol. Further, in data set [2], the Normal melting temperature came to 274.60 ± 2.1 °C.
For `c1ccc(-c2nc[nH]c2-c2ccccc2)cc1` [4,5-diphenylimidazole], in that order: 7.73 ± 0.17 kcal/mol and 231.80 ± 2.1 °C.
With `CCn1cc[n+](C)c1.F[P-](F)(F)(F)(F)F` [1-ethyl-3-methylimidazolium hexafluorophosphate], the “Molar enthalpy of transition or fusion” value in data set [1] amounted to 4.3 ± 0.105 kcal/mol. For the same compound, the Normal melting temperature in data set [2] came to 60.90 ± 1.2 °C.
Taken in the same sequence, the figures for `c1ccc(-c2ncc[nH]2)cc1` [2-phenyl-1H-imidazole] were 4.26 ± 0.108 kcal/mol and 146.80 ± 2.1 °C.
